Tests used:
[1] = test system: Fusarium wilt; assay: Controlled environment, 2% glyceride emulsion: Fusarium wilt severity on cotton; assay type: in vivo
Method: (§1) Plant materials used for tests were either branches obtained from the fields or trees grew in pots in a green house.
(§2) Plants growing in pot were inoculated with pests or pathogen and sprayed with 2% glyceride emulsions. Death rate of pests or number of lesions was evaluated one to three weeks after treatment.
(§3) Since mineral oil has been widely used for insect pest and disease control in agriculture (Taschenberg, 1952; Walsh et al., 2000), it was included in the experiments for comparison.

[2] = test system: Mites; assay: Controlled environment, 2% glyceride emulsion: mite survival on apple; assay type: in vivo, European red mite (ERM); conditions: ‘Delicious’ apple
Source text: as §1
(§4) To test the effects of different glycerides on over winter pests such as San Jose Scale (SJS) or European red mite (ERM) on pome or stone fruit trees, stems from dormant ‘Delicious’ apple trees and ‘Feng Huang’ peach trees infested with SJS were collected and dipped in 2% of different glyceride emulsions with the untreated served as control. Stems were then trimmed to 25 cm long by removing from the base, put in a plate with the base submerging in 1-cm thick water, and incubated at 23 degree C for 2 weeks in a chamber. After incubation, 15 overwintering SJS (‘Black-cap’ stage of first instar) per stem were examined microscopically and assessed for viability. Apple or peach stems containing ERM eggs were collected in late dormant and treated as described above and incubated at 28 degree C., 80% relative humidity, and 16-hour light/8-hour dark cycle. Mite viability was evaluated by the following method. Stem segment were impaled onto insect pins that had been driven through 10×12 cm white posterboard containing a thin coat of sticky gel to trip newly hatched mites and facilitate their counting. Eggs were examined every 2 days until hatch was complete. […]

[3] = test system: Psylla; assay: Controlled environment, 2% glyceride emulsion: psylla survival on apple; assay type: in vivo; conditions: ‘Delicious’ apple
Method: as §1, §2, §3

[4] = test system: Verticillium wilt; assay: Controlled environment, 2% glyceride emulsion: Verticillium wilt severity on potato; assay type: in vivo
Method: as §1, §2, §3

[5] = test system: Scab; assay: Controlled environment, 2% glyceride: scab severity on apple; assay type: in vivo; conditions: ‘Delicious’ apple
Method: as §1, §2, §3

[6] = test system: Barley strip; assay: Controlled environment, 2% glyceride emulsion: Barley strip severity on wheat; assay type: in vivo
Method: as §1, §2, §3

[7] = test system: Leaf spot; assay: Controlled environment, 2% glyceride: leaf spot severity on grape; assay type: in vivo; conditions: ‘Long Yan’ grape
Method: as §1, §2, §3

[8] = test system: Powdery mildew; assay: Controlled environment, 2% glyceride: powdery mildew severity on grape; assay type: in vivo; conditions: ‘Long Yan’ grape
Method: as §1, §2, §3

[9] = test system: Whitefly; assay: Controlled environment, 2% glyceride emulsion: whitefly survival on cotton; assay type: in vivo
Method: as §1, §2, §3

[10] = test system: Aphids; assay: Controlled environment, 2% glyceride emulsion: aphid survival on cotton; assay type: in vivo
Method: as §1, §2, §3

[11] = test system: TMV (I); assay: Controlled environment, 2% glyceride emulsion: TMV (I) severity in tomatoes; assay type: in vivo, tobacco mosaic virus (TMV I)
Method: as §1, §2, §3

[12] = test system: TICV; assay: Controlled environment, 2% glyceride emulsion: TICV severity in tomatoes; assay type: in vivo, tomato infectious chlorosis virus (TICV)
Method: as §1, §2, §3

[13] = test system: Aphids; assay: Controlled environment, 2% glyceride emulsion: aphid survival on wheat; assay type: in vivo
Method: as §1, §2, §3

[14] = test system: Aphids; assay: Controlled environment, 2% glyceride emulsion: aphid survival on tomato; assay type: in vivo
Method: as §1, §2, §3

[15] = test system: Leaf-spot; assay: Controlled environment, 2% glyceride emulsion: leaf-spot severity on cabbage; assay type: in vivo
Method: as §1, §2, §3

[16] = test system: SJS; assay: Controlled environment, 2% glyceride emulsion: SJS survival on apple; assay type: in vivo, San Jose Scale (SJS); conditions: ‘Delicious’ apple
Source text: as §1, §4

[17] = test system: Verticillium wilt; assay: Controlled environment, 2% glyceride emulsion: Verticillium wilt severity in tomatoes; assay type: in vivo
Method: as §1, §2, §3

[18] = test system: Verticillium wilt; assay: Controlled environment, 2% glyceride emulsion: Verticillium wilt severity on cabbage; assay type: in vivo
Method: as §1, §2, §3

[19] = test system: Aphids; assay: Controlled environment, 2% glyceride emulsion: aphid survival on orange; assay type: in vivo; conditions: ‘Qi Cheng’ orange
Method: as §1, §2, §3

[20] = test system: TSWV; assay: Controlled environment, 2% glyceride emulsion: TSWV severity in tomatoes; assay type: in vivo, tomato spotted wilt virus (TSWV)
Method: as §1, §2, §3

[21] = test system: Aphids; assay: Controlled environment, 2% glyceride emulsion: aphid survival on cabbage; assay type: in vivo
Method: as §1, §2, §3

[22] = test system: TMV (II); assay: Controlled environment, 2% glyceride emulsion: TMV (II) severity in tomatoes; assay type: in vivo, tomato mosaic virus (TMV II)
Method: as §1, §2, §3

[23] = test system: Aphids; assay: Controlled environment, 2% glyceride emulsion: aphid survival on apple; assay type: in vivo; conditions: ‘Delicious’ apple
Method: as §1, §2, §3

[24] = test system: leaf scald; assay: Controlled environment, 2% glyceride emulsion: leaf scald severity on wheat; assay type: in vivo
Method: as §1, §2, §3

[25] = test system: Fusarium wilt; assay: Controlled environment, 2% glyceride emulsion: Fusarium wilt severity in tomatoes; assay type: in vivo
Method: as §1, §2, §3

[26] = test system: Bacterial Spot; assay: Controlled environment, 2% glyceride emulsion: bacterial spot severity in tomatoes; assay type: in vivo
Method: as §1, §2, §3

[27] = test system: Verticillium wilt; assay: Controlled environment, 2% glyceride emulsion: Verticillium wilt severity on cotton; assay type: in vivo
Method: as §1, §2, §3

[28] = test system: Mites; assay: Controlled environment, 2% glyceride emulsion: mite survival on wheat; assay type: in vivo
Method: as §1, §2, §3

[29] = test system: Psorosis; assay: Controlled environment, 2% glyceride: psorosis severity on orange; assay type: in vivo; conditions: ‘Qi Cheng’ orange
Method: as §1, §2, §3

[30] = test system: Bacterial canker; assay: Controlled environment, 2% glyceride: bacterial canker severity on peach; assay type: in vivo; conditions: ‘Feng Hung’ peach
Method: as §1, §2, §3

[31] = test system: Whitefly; assay: Controlled environment, 2% glyceride emulsion: whitefly survival on apple; assay type: in vivo; conditions: ‘Delicious’ apple
Method: as §1, §2, §3

[32] = test system: Bacterial ring rot; assay: Controlled environment, 2% glyceride emulsion: bacterial ring rot severity on potato; assay type: in vivo
Method: as §1, §2, §3

[33] = test system: Mites; assay: Controlled environment, 2% glyceride emulsion: mite survival on tomato; assay type: in vivo
Method: as §1, §2, §3

[34] = test system: Powdery mildew; assay: Controlled environment, 2% glyceride: powdery mildew severity on peach; assay type: in vivo; conditions: ‘Feng Hung’ peach
Method: as §1, §2, §3

[35] = test system: Powdery mildew; assay: Controlled environment, 2% glyceride: powdery mildew severity on apple; assay type: in vivo; conditions: ‘Delicious’ apple
Method: as §1, §2, §3

[36] = test system: Mite; assay: Controlled environment, 2% glyceride emulsion: mite survival on orange; assay type: in vivo; conditions: ‘Qi Cheng’ orange
Method: as §1, §2, §3

[37] = test system: Whitefly; assay: Controlled environment, 2% glyceride emulsion: whitefly survival on cabbage; assay type: in vivo
Method: as §1, §2, §3

[38] = test system: Brown rot; assay: Controlled environment, 2% glyceride: brown rot severity on orange; assay type: in vivo; conditions: ‘Qi Cheng’ orange
Method: as §1, §2, §3

CCCCCCCCCCCC(=O)OCC(O)CO (centres unmarked) [Monolaurin]
disease severity, Cotton, Fusarium wilt [1]: 43e^z % of untreated control | pest survival (%), Apples, Mites [2]: 0g % | pest survival (%), Apples, Psylla [3]: 35e % | disease severity, Potato, Verticillium wilt [4]: 37e % of untreated control | disease severity, Apples, Scab [5]: 14f^z % of untreated control | disease severity, Wheat, Barley strip [6]: 19f % of untreated control | disease severity, Grapes, Leaf spot [7]: 37f % of untreated control | disease severity, Grapes, Powdery mildew [8]: 16g % of untreated control | pest survival (%), Cotton, Whitefly [9]: 31f % | pest survival (%), Cotton, Aphids [10]: 30e % | disease severity, TMV (I) [11]: 37e % of untreated control | disease severity, TICV [12]: 33f % of untreated control | pest survival (%), Wheat, Aphids [13]: 21e % | pest survival (%), Tomato, Aphids [14]: 27e % | disease severity, Cabbage, Leaf-spot [15]: 23f % of untreated control | pest survival (%), Apples, SJS [16]: 0f % | disease severity, Verticillium wilt [17]: 26f % of untreated control | disease severity, Cabbage, Verticillium wilt [18]: 46de % of untreated control | pest survival (%), Oranges, Aphids [19]: 31e % | disease severity, TSWV [20]: 27e % of untreated control | pest survival (%), Cabbage, Aphids [21]: 17e % | disease severity, TMV (II) [22]: 43d % of untreated control | pest survival (%), Apples, Aphids [23]: 34e % | disease severity, Wheat, leaf scald [24]: 32f % of untreated control | disease severity, Fusarium wilt [25]: 29f % of untreated control | disease severity, Bacterial Spot [26]: 18f^z % of untreated control | disease severity, Cotton, Verticillium wilt [27]: 48d % of untreated control | pest survival (%), Wheat, Mites [28]: 33e % | disease severity, Oranges, Psorosis [29]: 32d % of untreated control | disease severity, Peaches, Bacterial canker [30]: 24f % of untreated control | pest survival (%), Apples, Whitefly [31]: 31e % | disease severity, Potato, Bacterial ring rot [32]: 47e % of untreated control | pest survival (%), Tomato, Mites [33]: 34e % | disease severity, Peaches, Powdery mildew [34]: 13g % of untreated control | disease severity, Apples, Powdery mildew [35]: 18f % of untreated control | pest survival (%), Oranges, Mite [36]: 39e % | pest survival (%), Cabbage, Whitefly [37]: 28f % | disease severity, Oranges, Brown rot [38]: 34e % of untreated control
